# Measurements as given in PubChem BioAssay (NCI).
#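 Following 48 hours of exposure in 96-well plates, responses at five concentrations were used to interpolate endpoints linearly. The concentration for 50% growth inhibition is given as GI50. TGI marks complete inhibition of growth.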
# Experiments:
# Experiment in all cases: NCI-60 cell line screen, 48 h
# NCI-H23 lung = tested on: NCI-H23 lung
# UACC-62 melanoma = tested on: UACC-62 melanoma
# SW-620 colon = tested on: SW-620 colon
# NCI-H460 lung = tested on: NCI-H460 lung
# SF-295 CNS = tested on: SF-295 CNS
# PC-3 prostate = tested on: PC-3 prostate
# HOP-62 NSCLC = tested on: HOP-62 NSCLC
# SK-OV-3 ovarian = tested on: SK-OV-3 ovarian
# OVCAR-8 ovarian = tested on: OVCAR-8 ovarian
# SK-MEL-2 melanoma = tested on: SK-MEL-2 melanoma
# KM12 colon = tested on: KM12 colon
# CCRF-CEM leukemia = tested on: CCRF-CEM leukemia
# MDA-MB-231 breast = tested on: MDA-MB-231 breast
# RPMI-8226 leukemia = tested on: RPMI-8226 leukemia
# HCT-116 colon = tested on: HCT-116 colon
# UACC-257 melanoma = tested on: UACC-257 melanoma
# SNB-75 CNS = tested on: SNB-75 CNS
# T-47D breast = tested on: T-47D breast
# U251 CNS = tested on: U251 CNS
# NCI-H226 lung = tested on: NCI-H226 lung
# SK-MEL-28 melanoma = tested on: SK-MEL-28 melanoma
# A549 NSCLC = tested on: A549 NSCLC
# HL-60(TB) leukemia = tested on: HL-60(TB) leukemia
# UO-31 renal = tested on: UO-31 renal
# K-562 leukemia = tested on: K-562 leukemia
# SN12C renal = tested on: SN12C renal
# DU-145 prostate = tested on: DU-145 prostate
# 786-0 renal = tested on: 786-0 renal
# CAKI-1 renal = tested on: CAKI-1 renal
# M14 melanoma = tested on: M14 melanoma
# OVCAR-5 ovarian = tested on: OVCAR-5 ovarian
# IGROV1 ovarian = tested on: IGROV1 ovarian
# BT-549 breast = tested on: BT-549 breast
# RXF 393 renal = tested on: RXF 393 renal
# MDA-MB-435 = tested on: MDA-MB-435
# LOX IMVI melanoma = tested on: LOX IMVI melanoma
# HCT-15 colon = tested on: HCT-15 colon
# SF-539 CNS = tested on: SF-539 CNS
# A498 renal = tested on: A498 renal
# OVCAR-4 ovarian = tested on: OVCAR-4 ovarian
# MCF7 breast = tested on: MCF7 breast
# EKVX NSCLC = tested on: EKVX NSCLC
# HOP-92 NSCLC = tested on: HOP-92 NSCLC
# HCC-2998 colon = tested on: HCC-2998 colon
# SNB-19 CNS = tested on: SNB-19 CNS
# NCI/ADR-RES ovarian = tested on: NCI/ADR-RES ovarian
# ACHN renal = tested on: ACHN renal
# HS 578T breast = tested on: HS 578T breast
# NCI-H522 lung = tested on: NCI-H522 lung
# COLO 205 colon = tested on: COLO 205 colon
# SF-268 CNS = tested on: SF-268 CNS
# OVCAR-3 ovarian = tested on: OVCAR-3 ovarian
# MOLT-4 leukemia = tested on: MOLT-4 leukemia
# SK-MEL-5 melanoma = tested on: SK-MEL-5 melanoma
# TK-10 renal = tested on: TK-10 renal
# MALME-3M melanoma = tested on: MALME-3M melanoma
# HT29 colon = tested on: HT29 colon
structure (smiles),measurement,setting,value
COC(=O)c1ccc([C@H]2c3[nH]c4ccccc4c3C[C@H](C(=O)OC)N2C(=O)CCl)cc1,GI50,NCI-H23 lung,0.0549 µM
same,TGI,NCI-H23 lung,0.375 µM
same,GI50,UACC-62 melanoma,0.752 µM
same,TGI,UACC-62 melanoma,2.21 µM
same,GI50,SW-620 colon,1.49 µM
same,TGI,SW-620 colon,3.34 µM
same,GI50,NCI-H460 lung,1.63 µM
same,TGI,NCI-H460 lung,3.59 µM
same,GI50,SF-295 CNS,0.0804 µM
same,TGI,SF-295 CNS,0.216 µM
same,GI50,PC-3 prostate,0.845 µM
same,TGI,PC-3 prostate,4.3 µM
same,GI50,HOP-62 NSCLC,0.997 µM
same,TGI,HOP-62 NSCLC,4.44 µM
same,GI50,SK-OV-3 ovarian,1.72 µM
same,TGI,SK-OV-3 ovarian,3.59 µM
same,GI50,OVCAR-8 ovarian,1.36 µM
same,TGI,OVCAR-8 ovarian,7.93 µM
same,GI50,SK-MEL-2 melanoma,2.03 µM
same,TGI,SK-MEL-2 melanoma,4.89 µM
same,GI50,KM12 colon,1.03 µM
same,TGI,KM12 colon,4.39 µM
same,GI50,CCRF-CEM leukemia,0.0223 µM
same,TGI,CCRF-CEM leukemia,0.0839 µM
same,GI50,MDA-MB-231 breast,0.109 µM
same,TGI,MDA-MB-231 breast,0.551 µM
same,GI50,RPMI-8226 leukemia,0.0405 µM
same,TGI,RPMI-8226 leukemia,0.386 µM
same,GI50,HCT-116 colon,1.47 µM
same,TGI,HCT-116 colon,2.98 µM
same,GI50,UACC-257 melanoma,3.87 µM
same,TGI,UACC-257 melanoma,14.5 µM
same,GI50,SNB-75 CNS,0.334 µM
same,TGI,SNB-75 CNS,0.843 µM
same,GI50,T-47D breast,2.23 µM
same,TGI,T-47D breast,13.3 µM
same,GI50,U251 CNS,0.641 µM
same,TGI,U251 CNS,1.99 µM
same,GI50,NCI-H226 lung,2.21 µM
same,TGI,NCI-H226 lung,5.94 µM
same,GI50,SK-MEL-28 melanoma,2.35 µM
same,TGI,SK-MEL-28 melanoma,6.92 µM
same,GI50,A549 NSCLC,1.63 µM
same,TGI,A549 NSCLC,10.5 µM
same,GI50,HL-60(TB) leukemia,0.113 µM
same,TGI,HL-60(TB) leukemia,0.301 µM
same,GI50,UO-31 renal,0.0283 µM
same,TGI,UO-31 renal,0.108 µM
same,GI50,K-562 leukemia,1.97 µM
same,TGI,K-562 leukemia,> 28 µM
same,GI50,SN12C renal,1.26 µM
same,TGI,SN12C renal,2.89 µM
same,GI50,DU-145 prostate,2.23 µM
same,TGI,DU-145 prostate,12.3 µM
same,GI50,786-0 renal,< 0.01 µM
same,TGI,786-0 renal,< 0.0169 µM
same,GI50,CAKI-1 renal,0.262 µM
same,TGI,CAKI-1 renal,2.51 µM
same,GI50,M14 melanoma,1.94 µM
same,TGI,M14 melanoma,5.11 µM
same,GI50,OVCAR-5 ovarian,1.44 µM
same,TGI,OVCAR-5 ovarian,3.65 µM
same,GI50,IGROV1 ovarian,0.0858 µM
same,TGI,IGROV1 ovarian,0.277 µM
same,GI50,BT-549 breast,1.23 µM
same,TGI,BT-549 breast,2.57 µM
same,GI50,RXF 393 renal,0.074 µM
same,TGI,RXF 393 renal,0.723 µM
same,GI50,MDA-MB-435,2.74 µM
same,TGI,MDA-MB-435,11.1 µM
same,GI50,LOX IMVI melanoma,< 0.01 µM
same,TGI,LOX IMVI melanoma,< 0.01 µM
same,GI50,HCT-15 colon,1.04 µM
same,TGI,HCT-15 colon,2.65 µM
same,GI50,SF-539 CNS,0.0899 µM
same,TGI,SF-539 CNS,0.226 µM
same,GI50,A498 renal,0.447 µM
same,TGI,A498 renal,0.888 µM
same,GI50,OVCAR-4 ovarian,2.5 µM
same,TGI,OVCAR-4 ovarian,9.87 µM
same,GI50,MCF7 breast,1.75 µM
same,TGI,MCF7 breast,4.95 µM
same,GI50,EKVX NSCLC,0.82 µM
same,TGI,EKVX NSCLC,3.4 µM
same,GI50,HOP-92 NSCLC,0.023 µM
same,TGI,HOP-92 NSCLC,0.063 µM
same,GI50,HCC-2998 colon,1.75 µM
same,TGI,HCC-2998 colon,3.38 µM
same,GI50,SNB-19 CNS,4.39 µM
same,TGI,SNB-19 CNS,16 µM
same,GI50,NCI/ADR-RES ovarian,0.0744 µM
same,TGI,NCI/ADR-RES ovarian,0.333 µM
same,GI50,ACHN renal,0.234 µM
same,TGI,ACHN renal,2.17 µM
same,GI50,HS 578T breast,1.48 µM
same,TGI,HS 578T breast,5.98 µM
same,GI50,NCI-H522 lung,0.0197 µM
same,TGI,NCI-H522 lung,0.0435 µM
same,GI50,COLO 205 colon,2.33 µM
same,TGI,COLO 205 colon,6.14 µM
same,GI50,SF-268 CNS,1.9 µM
same,TGI,SF-268 CNS,4.61 µM
same,GI50,OVCAR-3 ovarian,0.672 µM
same,TGI,OVCAR-3 ovarian,2.12 µM
same,GI50,MOLT-4 leukemia,0.268 µM
same,TGI,MOLT-4 leukemia,0.857 µM
same,GI50,SK-MEL-5 melanoma,2.3 µM
same,TGI,SK-MEL-5 melanoma,5.93 µM
same,GI50,TK-10 renal,2.32 µM
same,TGI,TK-10 renal,7.66 µM
same,GI50,MALME-3M melanoma,0.157 µM
same,TGI,MALME-3M melanoma,0.438 µM
same,GI50,HT29 colon,0.298 µM
same,TGI,HT29 colon,1.11 µM
